From the NIST ThermoML archive (doi:10.1016/j.fluid.2013.10.012) come the findings set out here.

Numbers after ± are expanded uncertainties.

The conditions of data set [1]: Liquid; for mass density: 298.15 K, 101.33 kPa, Vibrating tube method; for vapor or sublimation pressure: Ebulliometric method (Recirculating still).
The nature of data set [2]: refractive index (Na D-line) (dimensionless). The note with it: 298.15 K; 101.33 kPa; Liquid; Standard Abbe refractometry.

What is called mass density is the mass of a sample divided by its volume. The vapor or sublimation pressure is the pressure of vapour in equilibrium with the condensed phase. The refractive index is the speed of light in vacuum divided by its phase velocity in the sample. Turning to `Cc1ccccc1C` [1,2-dimethylbenzene], the mass density in data set [1] was found to be 875.5 ± 1 kg/m3. Moreover, the “vapor or sublimation pressure” value in data set [1] (347.2 K) was 10 ± 0.15 kPa. Besides, in data set [2], the refractive index worked out at 1.5031 ± 0.0007.

On to `Cc1cccc(C)c1` [1,3-dimethylbenzene], for which the mass density in data set [1] was determined as 859.95 ± 1 kg/m3. In addition, in data set [1] (342.8 K), the “vapor or sublimation pressure” value was 10 ± 0.15 kPa. For the same compound, in data set [2], the refractive index is 1.4946 ± 0.0007.

For the compound `Cc1ccc(C)cc1` [1,4-dimethylbenzene], in data set [1], the mass density is reported as 856.71 ± 1 kg/m3. Also, the “vapor or sublimation pressure” value in data set [1] (342 K) is reported as 10 ± 0.15 kPa. Besides, the refractive index in data set [2] was 1.4931 ± 0.0007.

Turning to `CCCCCCCCCCC` [undecane], the mass density in data set [1] is 736.85 ± 1 kg/m3. Besides, the “vapor or sublimation pressure” value in data set [1] (393.4 K) is recorded as 10 ± 0.15 kPa. For the same compound, the refractive index in data set [2] worked out at 1.4152 ± 0.0007.
